Key:
[1] = test system: small flower umbrella sedge; test: Test B flooded paddy test; format: in vivo, Cyperus difformis; settings: 1000 g ai/ha, visual rating, scale 0 to 100 (0 no effect, 100 complete control), 13 to 15 days
In short: (§1)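 Visual control ratings, 0–100 versus untreated controls, taken after 13 to 15 days in the greenhouse. Blackgrass received a postemergence spray at the 1- to 4-leaf stage (2–18 cm); ducksalad, umbrella sedge and barnyardgrass were flooded-paddy treated at 2 leaves.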

ducksalad [2] = test: Test C flooded paddy test; format: in vivo, Heteranthera limosa
[3] = test system: smallflower umbrella sedge; test: Test C flooded paddy test; format: in vivo, Cyperus difformis
lambsquarters = test: Test B pre-/postemergence herbicide test; format: in vivo, Chenopodium album; settings: for Plant response rating, Lambsquarters: preemergence; for Lambsquarters plant response rating: postemergence, visual rating, scale 0 (no effect) to 100 (complete control)
In short: (§2)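 Flooded paddy rice and barnyardgrass were treated at the 2-leaf stage; upland plantings received compound either on sown seed or on 1- to 4-leaf seedlings. All were kept 13–15 days in a greenhouse and scored visually, 0–100, relative to untreated plants.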

ducksalad [4] = test: Test B flooded paddy test; format: in vivo, Heteranthera limosa; settings: 1000 g ai/ha, visual rating, scale 0 to 100 (0 no effect, 100 complete control), 13 to 15 days
In short: as §1

velvetleaf = test: Test B pre-/postemergence herbicide test; format: in vivo, Abutilon theophrasti; settings: for Plant response rating, Velvetleaf: preemergence; for Velvetleaf plant response rating: postemergence, visual rating, scale 0 (no effect) to 100 (complete control)
In short: as §2

wild oat = test: Test B postemergence herbicide test; format: in vivo, Avena fatua; settings: postemergence, visual rating, scale 0 (no effect) to 100 (complete control)
In short: (§3)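 Plants grow to 1- to 4-leaf stage (2–18 cm) for postemergence spraying, or to 2-leaf stage for the paddy test. Formulated compound is applied. Greenhouse holding lasts 13–15 days. Response is scored visually relative to controls, 0 no effect to 100 complete control; a dash means no result.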

large crabgrass = test: Test B pre-/postemergence herbicide test; format: in vivo, Digitaria sanguinalis; settings: for Plant response rating, Crabgrass, Large: preemergence; for Crabgrass, Large plant response rating: postemergence, visual rating, scale 0 (no effect) to 100 (complete control)
In short: as §2

cocklebur = test: Test B pre-/postemergence herbicide test; format: in vivo, Xanthium strumarium; settings: for Plant response rating, Cocklebur: preemergence; for Cocklebur plant response rating: postemergence, visual rating, scale 0 (no effect) to 100 (complete control)
In short: (§4)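 Response was scored visually 13 to 15 days after treatment against untreated greenhouse controls, 0 meaning no effect and 100 complete control. Formulations (solvent mixture plus surfactant) went onto soil after planting, onto foliage of 1- to 4-leaf plants, and onto 2-leaf plants in a flooded paddy set including rice and barnyardgrass.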

giant foxtail = test: Test B pre-/postemergence herbicide test; format: in vivo, Setaria faberi; settings: for Plant response rating, Foxtail, Giant: preemergence; for Foxtail, Giant plant response rating: postemergence, visual rating, scale 0 (no effect) to 100 (complete control)
In short: as §2

rice [5] = test: Test C flooded paddy test; format: in vivo, Oryza sativa
In short: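 Injury scored visually against controls on a 0 (no effect) to 100 (complete control) scale, 12 to 14 days after treatment in greenhouse. Flooded paddy plants treated at 2-leaf stage; postemergence plants at 1- to 4-leaf stage, 2 to 18 cm tall.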

blackgrass = test: Test B postemergence herbicide test; format: in vivo, Alopecurus myosuroides; settings: postemergence, visual rating, scale 0 (no effect) to 100 (complete control)
In short: as §1

rice [6] = test: Test B pre-/postemergence herbicide test; format: in vivo, Oryza sativa; settings: preemergence
In short: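 Evaluation is visual, comparing treated with control plants on a scale where 0 means no effect and 100 means full control. Treatments were preemergence, or postemergence on seedlings 2–18 cm tall, and held 13–15 days in the greenhouse.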

Surinam grass = test: Test B pre-/postemergence herbicide test; format: in vivo, Urochloa decumbens; settings: for Plant response rating, Surinam Grass: preemergence; for Surinam Grass plant response rating: postemergence, visual rating, scale 0 (no effect) to 100 (complete control)
In short: as §2

barnyardgrass [7] = test: Test B pre-/postemergence herbicide test; format: in vivo, Echinochloa crus-galli; settings: for Plant response rating, Barnyardgrass: preemergence; for Barnyardgrass plant response rating: postemergence, visual rating, scale 0 (no effect) to 100 (complete control)
In short: as §4

barnyardgrass [8] = test: Test C flooded paddy test; format: in vivo, Echinochloa crus-galli
In short: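 Visual rating, 0 (no effect) to 100 (complete control), vs. controls at 12–14 d in greenhouse. Postemergence: 1–4-leaf plants, 2–18 cm. Paddy: flooded, barnyardgrass at 2-leaf stage.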

rice [9] = test: Test B flooded paddy test; format: in vivo, Oryza sativa; settings: 1000 g ai/ha, visual rating, scale 0 to 100 (0 no effect, 100 complete control), 13 to 15 days
In short: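 After treating 2-leaf paddy plants or 2–18 cm postemergence plants (1 to 4 leaves) with formulated chemical, researchers kept them in a greenhouse for 13–15 days. Effects were judged visually versus controls: 0 indicates none, 100 total control.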

wheat = test: Test B postemergence herbicide test; format: in vivo, Triticum aestivum; parameters: key to Wheat plant response rating: 0 = no effect, 100 = complete control; settings: postemergence, 500 g ai/ha; visual rating, scale 0 (no effect) to 100 (complete control)
In short: as §3

corn = test: Test B pre-/postemergence herbicide test; format: in vivo, Zea mays; settings: for Plant response rating, Corn: preemergence; for Corn plant response rating: postemergence, visual rating, scale 0 (no effect) to 100 (complete control)
In short: as §2

pigweed = test: Test B pre-/postemergence herbicide test; format: in vivo, Amaranthus retroflexus; settings: for Plant response rating, Pigweed: preemergence; for Pigweed plant response rating: postemergence, visual rating, scale 0 (no effect) to 100 (complete control)
In short: as §2

barnyardgrass [10] = test: Test B flooded paddy test; format: in vivo, Echinochloa crus-galli; settings: 1000 g ai/ha, visual rating, scale 0 to 100 (0 no effect, 100 complete control), 13 to 15 days
In short: as §1

morningglory = test: Test B pre-/postemergence herbicide test; format: in vivo, Ipomoea coccinea; settings: for Plant response rating, Morningglory: preemergence; for Morningglory plant response rating: postemergence, visual rating, scale 0 (no effect) to 100 (complete control)
In short: as §4

[11] = 62 g ai/ha, scale 0 to 100 (0 no effect, 100 complete control)
[12] = 125 g ai/ha, scale 0 to 100 (0 no effect, 100 complete control)
[13] = 250 g ai/ha, scale of 0 to 100, 0 is no effect, 100 is complete control
[14] = 500 g ai/ha, visual rating after 12 to 14 days, scale 0 to 100 (0 no effect, 100 complete control)
[15] = 500 g ai/ha, visual rating 0-100, 0 no effect, 100 complete control
[16] = 125 g ai/ha, 0 to 100 scale, 0 is no effect, 100 is complete control

CCn1nc(C(C)(C)C)cc1C(=O)Nc1cc(C(=O)NCCOC)ccn1 [Compound 161]
Sedge, Umbrella plant response rating [1]: 60
Ducksalad plant response rating (ducksalad [2]; [11]): 30
Ducksalad plant response rating (ducksalad [2]; [12]): 65
Ducksalad plant response rating (ducksalad [2]; [13]): 80
Plant response rating, Ducksalad (ducksalad [2]; [14]): 90
Sedge, Umbrella plant response rating [3, 11]: 0
Sedge, Umbrella plant response rating [3, 12]: 0
Sedge, Umbrella plant response rating [3, 13]: 25
Plant response rating, Sedge, Umbrella [3, 14]: 40
Plant response rating, Lambsquarters (lambsquarters; [15]): 100
Lambsquarters plant response rating (lambsquarters; 125 g ai/ha): 70
Lambsquarters plant response rating (lambsquarters; 500 g ai/ha): 70
Plant response rating, Lambsquarters (lambsquarters; [16]): 100
Ducksalad plant response rating (ducksalad [4]): 80
Plant response rating, Velvetleaf (velvetleaf; [15]): 70
Velvetleaf plant response rating (velvetleaf; 125 g ai/ha): 20
Velvetleaf plant response rating (velvetleaf; 500 g ai/ha): 50
Plant response rating, Velvetleaf (velvetleaf; [16]): 20
Oat, Wild plant response rating (wild oat; 125 g ai/ha): 30
Oat, Wild plant response rating (wild oat; 500 g ai/ha): 40
Plant response rating, Crabgrass, Large (large crabgrass; [15]): 100
Crabgrass, Large plant response rating (large crabgrass; 125 g ai/ha): 0
Crabgrass, Large plant response rating (large crabgrass; 500 g ai/ha): 10
Plant response rating, Crabgrass, Large (large crabgrass; [16]): 80
Plant response rating, Cocklebur (cocklebur; [15]): 0
Cocklebur plant response rating (cocklebur; 125 g ai/ha): 20
Cocklebur plant response rating (cocklebur; 500 g ai/ha): 30
Plant response rating, Cocklebur (cocklebur; [16]): 0
Plant response rating, Foxtail, Giant (giant foxtail; [15]): 100
Foxtail, Giant plant response rating (giant foxtail; 125 g ai/ha): 20
Foxtail, Giant plant response rating (giant foxtail; 500 g ai/ha): 30
Plant response rating, Foxtail, Giant (giant foxtail; [16]): 20
Rice plant response rating (rice [5]; [11]): 0
Rice plant response rating (rice [5]; [12]): 10
Rice plant response rating (rice [5]; [13]): 60
Plant response rating, Rice (rice [5]; [14]): 65
Blackgrass plant response rating (blackgrass; 125 g ai/ha): 40
Blackgrass plant response rating (blackgrass; 500 g ai/ha): 40
Plant response rating, Rice (rice [6]; [15]): 40
Plant response rating, Rice (rice [6]; [16]): 0
Plant response rating, Surinam Grass (Surinam grass; [15]): 60
Surinam Grass plant response rating (Surinam grass; 125 g ai/ha): 20
Surinam Grass plant response rating (Surinam grass; 500 g ai/ha): 20
Plant response rating, Surinam Grass (Surinam grass; [16]): 10
Plant response rating, Barnyardgrass (barnyardgrass [7]; [15]): 100
Barnyardgrass plant response rating (barnyardgrass [7]; 125 g ai/ha): 10
Barnyardgrass plant response rating (barnyardgrass [7]; 500 g ai/ha): 10
Plant response rating, Barnyardgrass (barnyardgrass [7]; [16]): 50
Barnyardgrass plant response rating (barnyardgrass [8]; [11]): 0
Barnyardgrass plant response rating (barnyardgrass [8]; 125 g ai/ha, scale of 0 to 100, 0 is no effect, 100 is complete control): 0
Barnyardgrass plant response rating (barnyardgrass [8]; [13]): 30
Plant response rating, Barnyardgrass (barnyardgrass [8]; [14]): 75
Rice plant response rating (rice [9]): 40
Wheat plant response rating (wheat): 10
Plant response rating, Corn (corn; [15]): 10
Corn plant response rating (corn; 125 g ai/ha): 0
Corn plant response rating (corn; 500 g ai/ha): 0
Plant response rating, Corn (corn; [16]): 0
Plant response rating, Pigweed (pigweed; [15]): 100
Pigweed plant response rating (pigweed; 125 g ai/ha): 20
Pigweed plant response rating (pigweed; 500 g ai/ha): 60
Plant response rating, Pigweed (pigweed; [16]): 100
Barnyardgrass plant response rating (barnyardgrass [10]): 80
Plant response rating, Morningglory (morningglory; [15]): 40
Morningglory plant response rating (morningglory; 125 g ai/ha): 20
Morningglory plant response rating (morningglory; 500 g ai/ha): 20
Plant response rating, Morningglory (morningglory; [16]): 10

From patent US20060069132A1, “Azolecarboxamide herbicides” (priority 2004, published 2006)
